System: 422866-222-R5-J1-PDC spheroids with HUVEC/MSC, viability
Assay: Anticancer human tumor 422866-222-R5-J1-PDC patient-derived pancreatic adenocarcinoma cell line growth inhibition [GQUAD]
Conditions: for IC50: curve of first compound; for viability, T/C: stronger effect = lower value
Method in brief: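 Viability of tumor cells grown as complex spheroids with endothelial and stromal cells, exposed to drug combinations. Top concentration at or near clinical Cmax (else 10 microM), diluted in half-log increments.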

[1] = second compound 0.0316 µM, first compound 0.0316 µM
[2] = second compound 0.0316 µM, first compound 0.1 µM
[3] = second compound 0.0316 µM, first compound 0.316 µM
[4] = second compound 0.0316 µM, first compound 1 µM
[5] = second compound 0.0316 µM, first compound 3.16 µM
[6] = second compound 0.0316 µM, first compound 10 µM
[7] = second compound 0.1 µM, first compound 0.0316 µM
[8] = second compound 0.1 µM, first compound 0.1 µM
[9] = second compound 0.1 µM, first compound 0.316 µM
[10] = second compound 0.1 µM, first compound 1 µM
[11] = second compound 0.1 µM, first compound 3.16 µM
[12] = second compound 0.1 µM, first compound 10 µM
[13] = second compound 0.316 µM, first compound 0.0316 µM
[14] = second compound 0.316 µM, first compound 0.1 µM
[15] = second compound 0.316 µM, first compound 0.316 µM
[16] = second compound 0.316 µM, first compound 1 µM
[17] = second compound 0.316 µM, first compound 3.16 µM
[18] = second compound 0.316 µM, first compound 10 µM
[19] = second compound 1 µM, first compound 0.0316 µM
[20] = second compound 1 µM, first compound 0.1 µM
[21] = second compound 1 µM, first compound 0.316 µM
[22] = second compound 1 µM, first compound 1 µM
[23] = second compound 1 µM, first compound 3.16 µM
[24] = second compound 1 µM, first compound 10 µM
[25] = second compound 3.16 µM, first compound 0.0316 µM
[26] = second compound 3.16 µM, first compound 0.1 µM
[27] = second compound 3.16 µM, first compound 0.316 µM
[28] = second compound 3.16 µM, first compound 1 µM
[29] = second compound 3.16 µM, first compound 3.16 µM
[30] = second compound 3.16 µM, first compound 10 µM
[31] = second compound 10 µM, first compound 0.0316 µM
[32] = second compound 10 µM, first compound 0.1 µM
[33] = second compound 10 µM, first compound 0.316 µM
[34] = second compound 10 µM, first compound 1 µM
[35] = second compound 10 µM, first compound 3.16 µM
[36] = second compound 10 µM, first compound 10 µM
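Note: spheroids exposed to compounds for seven days before reading.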
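Throughout, for viability, T/C: percent viability relative to DMSO vehicle control taken as 100%.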

How did the IC50 (second compound 0.0316 µM) turn out when `CC1COCCN1c1cc(C2(S(C)(=N)=O)CC2)nc(-c2ccnc3[nH]ccc23)n1` (centres undefined) + CN(C)c1ccc(Nc2c3ccc(NC(=O)CCN4CCCC4)cc3nc3cc(NC(=O)CCN4CCCC4)ccc23)cc1 was run?
Its IC50 is 3.57 µM.

And the IC50 (second compound 0.1 µM)?
Its IC50 is 2.59 µM.

What about the IC50 (second compound 0.316 µM) of the same compound?
The IC50 was 7.8 µM.

And the IC50 (second compound 1 µM)?
The IC50 was 3.79 µM.

And the IC50 (second compound 3.16 µM)?
The IC50 was 3.58 µM.

What about the IC50 (second compound 10 µM) of the same compound?
Its IC50 is 6.04 µM.

What about the viability, T/C [1] of the same compound?
The viability, T/C was 97.6%.

And the viability, T/C [2]?
Its viability, T/C is 99.8%.

And the viability, T/C [3]?
The viability, T/C was 97.3%.

And the viability, T/C [4]?
The viability, T/C was 88.5%.

And the viability, T/C [5]?
Its viability, T/C is 51%.

And the viability, T/C [6]?
Its viability, T/C is 41.1%.

And the viability, T/C [7]?
Its viability, T/C is 102%.

What about the viability, T/C [8] of the same compound?
The viability, T/C was 98.3%.

And the viability, T/C [9]?
Its viability, T/C is 102%.

And the viability, T/C [10]?
The viability, T/C was 78.9%.

And the viability, T/C [11]?
Its viability, T/C is 44.6%.

What about the viability, T/C [12] of the same compound?
The viability, T/C was 37.9%.

And the viability, T/C [13]?
Its viability, T/C is 92.2%.

And the viability, T/C [14]?
Its viability, T/C is 86.2%.

What about the viability, T/C [15] of the same compound?
Its viability, T/C is 88.4%.

What about the viability, T/C [16] of the same compound?
The viability, T/C was 81%.

What about the viability, T/C [17] of the same compound?
Its viability, T/C is 60.3%.

What about the viability, T/C [18] of the same compound?
The viability, T/C was 47.1%.

What about the viability, T/C [19] of the same compound?
Its viability, T/C is 73.7%.

What about the viability, T/C [20] of the same compound?
The viability, T/C was 76.6%.

What about the viability, T/C [21] of the same compound?
Its viability, T/C is 100%.

What about the viability, T/C [22] of the same compound?
The viability, T/C was 72.7%.

And the viability, T/C [23]?
Its viability, T/C is 54.2%.

What about the viability, T/C [24] of the same compound?
Its viability, T/C is 31.9%.

And the viability, T/C [25]?
Its viability, T/C is 84.5%.

What about the viability, T/C [26] of the same compound?
Its viability, T/C is 76.5%.

And the viability, T/C [27]?
Its viability, T/C is 86%.

And the viability, T/C [28]?
The viability, T/C was 72%.

And the viability, T/C [29]?
Its viability, T/C is 51.4%.

And the viability, T/C [30]?
Its viability, T/C is 43.5%.

And the viability, T/C [31]?
Its viability, T/C is 79.5%.

What about the viability, T/C [32] of the same compound?
Its viability, T/C is 77%.

What about the viability, T/C [33] of the same compound?
Its viability, T/C is 93%.

And the viability, T/C [34]?
Its viability, T/C is 73.6%.

What about the viability, T/C [35] of the same compound?
The viability, T/C was 61.9%.

And the viability, T/C [36]?
The viability, T/C was 41.2%.

`Cc1cccc(N(C)C(=O)C2C(O)CCN2c2nc(C)cc(C(F)(F)F)c2C#N)c1` (centres undefined) + Cc1[nH]c2ccc(F)cc2c1-c1nc2c3cccnc3c3ncccc3c2[nH]1 was tested. Which IC50 (second compound 0.0316 µM) did it give?
The IC50 was over 10 µM.

What about the IC50 (second compound 0.1 µM) of the same compound?
The IC50 was over 10 µM.

What about the IC50 (second compound 0.316 µM) of the same compound?
Its IC50 is over 10 µM.

And the IC50 (second compound 1 µM)?
The IC50 was over 10 µM.

And the IC50 (second compound 3.16 µM)?
Its IC50 is over 10 µM.

What about the IC50 (second compound 10 µM) of the same compound?
The IC50 was over 10 µM.

And the viability, T/C [1]?
The viability, T/C was 107%.

What about the viability, T/C [2] of the same compound?
Its viability, T/C is 95.2%.

What about the viability, T/C [3] of the same compound?
The viability, T/C was 102%.

What about the viability, T/C [4] of the same compound?
Its viability, T/C is 79.5%.

What about the viability, T/C [5] of the same compound?
Its viability, T/C is 116%.

And the viability, T/C [6]?
The viability, T/C was 108%.

What about the viability, T/C [7] of the same compound?
The viability, T/C was 88.8%.

What about the viability, T/C [8] of the same compound?
The viability, T/C was 92.2%.

What about the viability, T/C [9] of the same compound?
The viability, T/C was 116%.

And the viability, T/C [10]?
Its viability, T/C is 82.8%.

And the viability, T/C [11]?
Its viability, T/C is 99.9%.

And the viability, T/C [12]?
Its viability, T/C is 107%.

What about the viability, T/C [13] of the same compound?
The viability, T/C was 89.9%.

What about the viability, T/C [14] of the same compound?
The viability, T/C was 92.9%.

What about the viability, T/C [15] of the same compound?
Its viability, T/C is 97.4%.

What about the viability, T/C [16] of the same compound?
Its viability, T/C is 98.3%.

What about the viability, T/C [17] of the same compound?
Its viability, T/C is 115%.

What about the viability, T/C [18] of the same compound?
Its viability, T/C is 114%.

And the viability, T/C [19]?
Its viability, T/C is 92.7%.

And the viability, T/C [20]?
The viability, T/C was 101%.

And the viability, T/C [21]?
The viability, T/C was 111%.

What about the viability, T/C [22] of the same compound?
Its viability, T/C is 103%.

What about the viability, T/C [23] of the same compound?
The viability, T/C was 120%.

What about the viability, T/C [24] of the same compound?
Its viability, T/C is 93.1%.

And the viability, T/C [25]?
Its viability, T/C is 80.2%.

And the viability, T/C [26]?
Its viability, T/C is 96.1%.

What about the viability, T/C [27] of the same compound?
Its viability, T/C is 89.6%.

And the viability, T/C [28]?
Its viability, T/C is 84.1%.

What about the viability, T/C [29] of the same compound?
Its viability, T/C is 104%.

And the viability, T/C [30]?
Its viability, T/C is 96.4%.

And the viability, T/C [31]?
Its viability, T/C is 82.5%.

And the viability, T/C [32]?
The viability, T/C was 86.8%.

What about the viability, T/C [33] of the same compound?
The viability, T/C was 100%.

What about the viability, T/C [34] of the same compound?
The viability, T/C was 86.9%.

What about the viability, T/C [35] of the same compound?
Its viability, T/C is 90.1%.

What about the viability, T/C [36] of the same compound?
Its viability, T/C is 96.9%.
